Data: patent US20230040594A1, “MILK-DERIVED POLYPEPTIDE DERIVATIVE, COMPOSITION AND METHOD FOR PREVENTING AND TREATING OBESITY” (Nanjing Maternity and Child Health Care Hospital, priority 2021, published 2023)

Legend:
[1] = system: C57BL/6J male mice fed with high-fat diet; assay: Fasting blood glucose, blood lipid and insulin levels of mice with high-fat diet (Embodiment 4); type: in vivo; settings: continuous intervention for 10 weeks; 5 and 10 mg/kg i.p. twice a week; FIG. 8
Protocol: (§1) C57BL/6J male mice at 6-8 weeks old were used as research subjects, and an experiment was carried out after adaptation to a SPF animal room for one week. The mice were fed with high-fat diet (with 60% of fat content) for 10 weeks to induce obesity phenotype in mice. At the same time, different drug concentrations (5 mg/kg and 10 mg/kg) of the milk-derived polypeptide derivatives corresponding to SEQ ID NO.5 were provided, and were administered by intraperitoneal injection twice a week, with resolvent saline (Vehicle) as a control. The changes of the blood glucose in the mice were detected by a Roche blood glucose meter, and changes of blood lipid and insulin level in the mice were detected by Applygen and Millipore commercial kits respectively.

[2] = system: C57BL/6J male mice fed with high-fat diet; assay: Glucose tolerance test (GTT) in mice with high-fat diet (Embodiment 3); type: in vivo; settings: FIG. 6
Protocol: as §1, with “dissolved normal” for “resolvent”, “control.” for “control. The changes of the blood glucose in the mice were detected by a Roche blood glucose meter, and changes of blood lipid and insulin level in the mice were detected by Applygen and Millipore commercial kits respectively.”
(§2) Insulin Sensitivity: The mice are fasted overnight for 12 hours, and at a next day, insulin was injected by intraperitoneal injection at a standard of 0.75 U per kg of weight. Blood samples were taken from tail vein at 0 min, 15 min, 30 min, 60 min, 90 min and 120 min after the injection, and changes of the blood glucose in the mice were measured by a blood glucose meter to evaluate the insulin sensitivity of the mice. Glucose tolerance test: after fasting for 6 hours, the mice were injected with glucose by intraperitoneal injection at a concentration of 1 g per kg of weight. Blood samples were taken from tail vein at 0 min, 15 min, 30 min, 60 min, 90 min and 120 min after the injection, and changes of the blood glucose in the mice were measured by a blood glucose meter to evaluate the glucose tolerance of the mice.

[3] = system: obese C57BL/6J male mice induced by high-fat diet for six months; assay: Body weight, blood glucose and adipose tissue volume of obese model mice (Embodiment 6); type: in vivo
Protocol: C57BL/6J male mice at 6-8 weeks old were used as research subjects, and an experiment was carried out after adaptation to a SPF animal room for one week. The mice were fed with high-fat diet (with 60% of fat content) for six months to induce obesity phenotype in mice. After six months, the milk-derived polypeptide derivative shown by SEQ ID NO.5 (10 mg/kg) was administered by intraperitoneal injection once a day and continuously for 8 weeks. The mice were weighed every week for their weight changes, and at the same time, blood glucose changes of the mice were detected by a blood glucose meter. After intervention, the mice were killed, and then brown fat (BAT) at scapular, inguinal white adipose tissue (iWAT) and epididymal white adipose tissue (eWAT) were photographed. As mentioned above, H&E staining was also performed to observe morphological changes of lipid droplets, and expression of the UCP1 protein in adipose tissues was detected by immunohistochemistry and the Western blot methods.

[4] = system: brown fat (BAT) and inguinal subcutaneous white adipose tissues (iWAT); assay: H&E staining of adipose tissues of mice with high-fat diet (Embodiment 5); type: in vivo; settings: 10 weeks; 5 and 10 mg/kg i.p. twice a week; FIG. 9
Protocol: C57BL/6J male mice at 6-8 weeks old were used as research subjects, and an experiment was carried out after adaptation to a SPF animal room for one week. The mice were fed with high-fat diet (with 60% of fat content) for 10 weeks to induce obesity phenotype in mice. At the same time, different drug concentrations (5 mg/kg and 10 mg/kg) were provided, and the milk-derived polypeptide derivatives corresponding to SEQ ID NO.5 were administered by intraperitoneal injection twice a week, with dissolved normal saline (Vehicle) as a control. After 10 weeks of intervention, the mice were killed, and brown fat (BAT) at scapula and inguinal subcutaneous white adipose tissues (iWAT) were taken to be fixed with a adipose tissue fixing solution (Solarbio, G2185) for 24 hours. H&E staining and a UCP1 protein immunohistochemistry study were carried out after dehydration, paraffin embedding and sectioning. The H&E staining is performed using a kit (ab245800) from Abcam, and specific steps can be found in kit instructions. Tissue sections were subjected to the immunohistochemistry study after dewaxing and antigen repairing. […] At the same time, total protein was extracted by a RIPA lysate, and expression of the UCP1 protein in the adipose tissues was detected by a Western blot method after quantifying, SDS-PAGE electrophoresis and transmembrane.

[5] = system: C57BL/6J male mice fed with high-fat diet; assay: Weight increasing of mice with high-fat diet (Embodiment 2); type: in vivo; settings: 5 and 10 mg/kg i.p. twice a week
Protocol: C57BL/6J male mice at 6-8 weeks old were used as research subjects, and an experiment was carried out after adaptation to a SPF animal room for one week. The mice were fed with high-fat diet (with 60% of fat content) for 10 weeks to induce obesity phenotype in mice. At the same time, different drug concentrations (5 mg/kg and 10 mg/kg) were provided, and the milk-derived polypeptide derivatives corresponding to SEQ ID NO.5 were administered by intraperitoneal injection twice a week, with dissolved normal saline (Vehicle) as a control. The mice are weighed to obtain body weight and their food intake calculated every week. After the mice were killed, brown fat (BAT) at scapular, inguinal white adipose tissue (iWAT) and epididymal white adipose tissue (eWAT) were photographed, weighed to obtain wet weight and lean mass of the mice was calculated.

UCP1 protein [6] = assay: UCP1 protein immunohistochemistry and Western blot in adipose tissues of mice with high-fat diet (Embodiment 5); type: in vivo
Protocol: C57BL/6J male mice at 6-8 weeks old were used as research subjects, and an experiment was carried out after adaptation to a SPF animal room for one week. The mice were fed with high-fat diet (with 60% of fat content) for 10 weeks to induce obesity phenotype in mice. At the same time, different drug concentrations (5 mg/kg and 10 mg/kg) were provided, and the milk-derived polypeptide derivatives corresponding to SEQ ID NO.5 were administered by intraperitoneal injection twice a week, with dissolved normal saline (Vehicle) as a control. After 10 weeks of intervention, the mice were killed, and brown fat (BAT) at scapula and inguinal subcutaneous white adipose tissues (iWAT) were taken to be fixed with a adipose tissue fixing solution (Solarbio, G2185) for 24 hours. H&E staining and a UCP1 protein immunohistochemistry study were carried out after dehydration, paraffin embedding and sectioning. The H&E staining is performed using a kit (ab245800) from Abcam, and specific steps can be found in kit instructions. Tissue sections were subjected to the immunohistochemistry study after dewaxing and antigen repairing. Specifically, the sections were incubated overnight with UCP1 antibody (1:200, Proteintech) at 4 degrees. The antibody was diluted with PBS containing 1% of BSA, and a color reaction was carried out next day with a DAB kit from Abcam. Specific operations can be referred to kit experimental steps. At the same time, total protein was extracted by a RIPA lysate, and expression of the UCP1 protein in the adipose tissues was detected by a Western blot method after quantifying, SDS-PAGE electrophoresis and transmembrane.

UCP1 protein [7] = assay: UCP1 protein immunohistochemistry and Western blot in adipose tissues of obese model mice (Embodiment 6); type: in vivo; settings: 10 mg/kg i.p. once a day for 8 weeks; FIG. 13 and FIG. 14
Protocol: (§3) C57BL/6J male mice at 6-8 weeks old were used as research subjects, and an experiment was carried out after adaptation to a SPF animal room for one week. The mice were fed with high-fat diet (with 60% of fat content) for 10 weeks to induce obesity phenotype in mice. At the same time, different drug concentrations (5 mg/kg and 10 mg/kg) were provided, and the milk-derived polypeptide derivatives corresponding to SEQ ID NO.5 were administered by intraperitoneal injection twice a week, with dissolved normal saline (Vehicle) as a control. […] At the same time, total protein was extracted by a RIPA lysate, and expression of the UCP1 protein in the adipose tissues was detected by a Western blot method after quantifying, SDS-PAGE electrophoresis and transmembrane.
(§4) C57BL/6J male mice at 6-8 weeks old were used as research subjects, and an experiment was carried out after adaptation to a SPF animal room for one week. […] The mice were weighed every week for their weight changes, and at the same time, blood glucose changes of the mice were detected by a blood glucose meter. […] As mentioned above, H&E staining was also performed to observe morphological changes of lipid droplets, and expression of the UCP1 protein in adipose tissues was detected by immunohistochemistry and the Western blot methods.

[8] = system: adipose tissues of obese model mice; assay: H&E staining of adipose tissues of obese model mice (Embodiment 6); type: in vivo; settings: 10 mg/kg i.p. once a day for 8 weeks; FIG. 13
Protocol: as §3, §4

[9] = system: C57BL/6J male mice fed with high-fat diet; assay: Insulin sensitivity (ITT) in mice with high-fat diet (Embodiment 3); type: in vivo
Protocol: as §1, with “dissolved normal” for “resolvent”, “control.” for “control. The changes of the blood glucose in the mice were detected by a Roche blood glucose meter, and changes of blood lipid and insulin level in the mice were detected by Applygen and Millipore commercial kits respectively.”
as §2

[10] = previous studies; can scavenge free radicals produced in vivo; cited from earlier work
[11] = 10 mg/kg i.p. once a day for 8 weeks after six months high-fat diet, FIG. 11

Q: Which “blood lipid (triglyceride) level” value [1] does the source give for “GRKKRRQRRRPPQQVKEAMAPK [SEQ ID NO.5, theone tested in Embodiments 2-6]” here?
A: The value was “significantly reduced”.

Q: And the “fasting blood glucose level” value [1]?
A: Its value is “significantly reduced”.

Q: What about the insulin level [1] of the same sequence?
A: Its insulin level is “significantly reduced”.

Q: And the “area under the curve (GTT)” value ([2]; 10 mg/kg for 10 weeks)?
A: The value was “significant statistical significance”.

Q: What about the “blood glucose levels within 2 hours after glucose injection vs control” value ([2]; continuous intervention for 10 weeks, 5 and 10 mg/kg, glucose 1 g per kg i.p.) of the same sequence?
A: The value was “lower than those of the control group”.

Q: What about the “body weight of the obese mice” value [3, 11] of the same sequence?
A: The value was “significantly reduced”.

Q: And the fasting blood glucose [3, 11]?
A: Its fasting blood glucose is “decreased”.

Q: And the “tissue volumes of white fat (subcutaneous and abdominal) and brown fat (scapular areas)” value ([3]; 10 mg/kg i.p. once a day for 8 weeks, after dissection, FIG. 12)?
A: Its value is “significantly reduced”.

Q: And the “morphology sizes of lipid droplets in brown fat and white adipose tissues (H&E staining)” value [4]?
A: The value was “significantly reduced”.

Q: And the “fat content (wet weight test of the adipose tissues)” value ([5]; 10 weeks, FIG. 4)?
A: The value was “decreased significantly”.

Q: What about the “lean mass of the mice” value ([5]; 10 weeks, FIG. 5) of the same sequence?
A: Its value is “no significant change”.

Q: What about the “volumes of subcutaneous and abdominal white adipose tissues” value ([5]; after dissection, 10 weeks, FIG. 3) of the same sequence?
A: Its value is “decreased significantly”.

Q: What about the “weight of the mice vs control group (Vehicle)” value ([5]; by 10th week) of the same sequence?
A: The value was “significantly lower”.

Q: And the “effect on UCP1 protein content at low drug concentration (Western blot)” value (UCP1 protein [6]; 5 mg/Kg, FIG. 10)?
A: The value was “good effect”.

Q: And the “UCP1 immunohistochemistry brown areas in brown and white adipose tissues” value (UCP1 protein [6]; 10 weeks, 5 and 10 mg/kg i.p. twice a week, FIG. 9)?
A: Its value is “significantly increased”.

Q: What about the “contents of the UCP1 protein in brown and white adipose tissues (Western blot)” value (UCP1 protein [6]; 10 weeks, 5 and 10 mg/kg, certain dose-dependent relationship, FIG. 10) of the same sequence?
A: Its value is “significantly increased”.

Q: What about the “expression of UCP1 in two kinds of adipose tissues (immunohistochemistry and Western blot)” value (UCP1 protein [7]) of the same sequence?
A: Its value is “increased”.

Q: And the “sizes of the lipid droplets in the two tissues (H&E staining)” value [8]?
A: The value was “decreased significantly”.

Q: And the “insulin sensitivity (ITT)” value ([9]; 5 mg/kg, FIG. 7)?
A: Its value is “certain statistical significance”.

Q: And the “blood glucose levels within 2 hours after insulin injection vs control” value ([9]; continuous intervention for 10 weeks, 5 and 10 mg/kg, insulin 0.75 U per kg i.p.)?
A: Its value is “lower than those of the control group”.

Q: For “VKEAMAPK [Val-Lys-Glu-Ala-Met-Ala-Pro-Lys, isolated linear milk-derived polypeptide from β-casein 98-105 amino acids]”, which antioxidant activity [10] is on record?
A: Its antioxidant activity is “antioxidant activity”.
